Assay results published in patent US20240207162A1, “CARGO MOLECULE TRANSDUCTION DOMAIN RMAD1, VARIANT THEREOF, RECOMBINANT CARGO MOLECULE, AND METHOD FOR TRANSDUCING CARGO MOLECULE USING SAME” (REMEDI CO., LTD., priority 2021, published 2024).

System: RAW264.7 cells
Test: Introduction of SOD1 fusion proteins into RAW264.7 cells
Type: cell-based
Conditions: 0.5 uM, 2 hours
Experimental: SOD1, which is widely known as an antioxidant enzyme, was fused with a cell-penetrating peptide, and the cell-penetrating ability and activity maintenance were evaluated using RAW264.7 cells. The recombinant proteins SOD1, SOD1-TAT, and SOD1-RMAD1 were treated at the same concentration of 0.5 uM to RAW264.7 cells for 2 hours.

SOD1: antioxidant enzyme, recombinant control protein
level of cell penetration: did not penetrate cells
